Test results: US20260068882A1, “ARTHROPOD CONTROLLING COMPOSITION” (Firmenich SA, priority 2019, published 2026)
Like-named read-outs stand apart in the source and are kept apart here.

Key:
Aedes aegypti = assay: In vitro Warm Body assay, mosquitoes landing on treated warm body; type: in vivo; details: for % of mosquitoes' repellency: normalised to landing with 100% ethanol
Method in brief: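 Adapted Warm Body assay with host-seeking, non-blood-fed, sugar-fed A. aegypti Rockefeller females aged 5–10 days (10–12 days in one set); cages held 30 (or 25) females at 150 lux. Landings were counted automatically. Doses in ethanol were 0.0016%, 0.04% and 1% in triplicate, or a single replicate across 0.0016–1%.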

Ixodes ricinus = assay: In vitro Warm Plate Assay for ticks; type: in vivo; details: for percentage of ticks affected overtime: 20% (w/w) in ethanol
Method in brief: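 Repellency against last-stage Ixodes ricinus nymphs in an in vitro warm plate assay, compounds diluted in ethanol at 0.4 and 10 mg/mL, 0.0016% to 1%, or 20% (w/w). Ticks walking down or falling from the treated plate scored as affected, walking up as unaffected; groups of 12 ticks, n=2-5.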

[1] = Aedes aegypti, read-out: decrease of landings
[2] = Ixodes ricinus, 0.0016% (Table 11), read-out: percentage of ticks affected on the Warm Plate
[3] = Ixodes ricinus, 0.04% (Table 11), read-out: percentage of ticks affected on the Warm Plate
[4] = Ixodes ricinus, 1% (Table 11), read-out: percentage of ticks affected on the Warm Plate
[5] = Ixodes ricinus, 0.04% (Table 10), read-out: percentage of ticks affected on the Warm Plate
[6] = Ixodes ricinus, 0.2% (Table 10), read-out: percentage of ticks affected on the Warm Plate
[7] = Ixodes ricinus, 1% (Table 10), read-out: percentage of ticks affected on the Warm Plate

CCCCN(CCC(=O)OCC)C(C)=O [IR3535, 3-[N-n-butyl-N-acetyl]aminopropionic acid ethylester, reference compound]
% of mosquitoes' repellency (Aedes aegypti; 0.00032% concentration): 8%
% of mosquitoes' repellency (Aedes aegypti; 0.0016% concentration): 0%
mean ± SD numbers of mosquitoes landed on the Warm Body (Aedes aegypti; 0.0016% dilution (Table 4)): 70.0 ± 14.3
number of mosquitoes landed on the Warm Body (Aedes aegypti; 0.0016% in ethanol (Table 7, one replicate)): 70
% of mosquitoes' repellency (Aedes aegypti; 0.0080% concentration): 0%
number of mosquitoes landed on the Warm Body (Aedes aegypti; 0.008% in ethanol (Table 7, one replicate)): 63
number of mosquitoes landed on the Warm Body (Aedes aegypti; 0.0119% in ethanol (Table 7, one replicate)): 22
% of mosquitoes' repellency (Aedes aegypti; 0.040% concentration): 69%
mean ± SD numbers of mosquitoes landed on the Warm Body (Aedes aegypti; 0.04% dilution (Table 4)): 20.7 ± 2.1
number of mosquitoes landed on the Warm Body (Aedes aegypti; 0.04% in ethanol (Table 7, one replicate)): 21
number of mosquitoes landed on the Warm Body (Aedes aegypti; 0.0598% in ethanol (Table 7, one replicate)): 6
% of mosquitoes' repellency (Aedes aegypti; 0.20% concentration): 78%
number of mosquitoes landed on the Warm Body (Aedes aegypti; 0.2% in ethanol (Table 7, one replicate)): 9
number of mosquitoes landed on the Warm Body (Aedes aegypti; 0.447% in ethanol (Table 7, one replicate)): 0
% of mosquitoes' repellency (Aedes aegypti; 1% concentration): 89%
mean ± SD numbers of mosquitoes landed on the Warm Body (Aedes aegypti; 1% dilution (Table 4)): 7.7 ± 1.6
number of mosquitoes landed on the Warm Body (Aedes aegypti; 1% in ethanol (Table 7, one replicate)): 8
repulsion (in words) (Aedes aegypti; concentrations lower than 0.04%): only low repulsion
percentage of ticks affected on the Warm Plate (Ixodes ricinus; 0.0016% in ethanol (Table 12)): 0%
percentage of ticks affected on the Warm Plate (Ixodes ricinus; 0.0053% in ethanol (Table 12)): 0%
percentage of ticks affected on the Warm Plate (Ixodes ricinus; 0.008% in ethanol (Table 12)): 8%
percentage of ticks affected on the Warm Plate (Ixodes ricinus; 0.0119% in ethanol (Table 12)): 0%
percentage of ticks affected on the Warm Plate (Ixodes ricinus; 0.0178% in ethanol (Table 12)): 0%
percentage of ticks affected on the Warm Plate (Ixodes ricinus; 0.0267% in ethanol (Table 12)): 0%
percentage of ticks affected on the Warm Plate (Ixodes ricinus; 0.04% in ethanol (Table 12)): 33%
percentage of ticks affected on the Warm Plate (Ixodes ricinus; 0.0598% in ethanol (Table 12)): 12%
percentage of ticks affected on the Warm Plate (Ixodes ricinus; 0.089% in ethanol (Table 12)): 46%
percentage of ticks affected on the Warm Plate (Ixodes ricinus; 0.2% in ethanol (Table 12)): 57%
percentage of ticks affected on the Warm Plate (Ixodes ricinus; 0.447% in ethanol (Table 12)): 53%
percentage of ticks affected on the Warm Plate (Ixodes ricinus; 1% in ethanol (Table 12)): 56%
percentage of ticks affected overtime (Ixodes ricinus; 0.25 h post-application): 83%
percentage of ticks affected overtime (Ixodes ricinus; 0.5 h post-application): 40%
percentage of ticks affected overtime (Ixodes ricinus; 1 h post-application): 83%
percentage of ticks affected overtime (Ixodes ricinus; 2 h post-application): 58%
percentage of ticks affected overtime (Ixodes ricinus; 4 h post-application): 58%
percentage of ticks affected overtime (Ixodes ricinus; 6 h post-application): 0%
ticks affected (Ixodes ricinus; dose of 0.89%): 46%

COCC1(C)Cc2ccc(C)cc2C1 (stereo not drawn) [(2,5-dimethyl-2,3-dihydro-1H-inden-2-yl)methyl methyl ether]
decrease of the number of landing (Aedes aegypti; 1% in ethanol (FIG. 9)): 86%
pest or weed control at 0.0016 % (Aedes aegypti; [1]): 4 to 29%
pest or weed control at 0.0016 % (Ixodes ricinus; [2]): 0%
pest or weed control at 0.04 % (Ixodes ricinus; [3]): 17%
pest or weed control at 1 % (Ixodes ricinus; [4]): 79%

Cc1cc(C)c2c(c1)CC(C)(CO)C2 (racemic) [ingredient #1, (2,4,6-trimethyl-2,3-dihydro-1H-inden-2-yl)methanol]
mosquitoes landing on the warm body (Aedes aegypti; 1% in ethanol (FIG. 8)): no mosquito landed
pest or weed control at 0.04 % (Aedes aegypti; [1]): 88%
MEAN % affected (ticks) (Ixodes ricinus; 0.4 mg/mL in ethanol (Table 5)): 67%
MEAN % affected (ticks) (Ixodes ricinus; 10 mg/mL in ethanol (Table 5)): 100%
ticks non-affected over 12 (in words) (Ixodes ricinus; 0.04%): three and five ticks over 12 being non-affected
ticks affected / not affected over 12 (in words) (Ixodes ricinus; 1%): all the ticks being affected
pest or weed control at 0.0016 % (Ixodes ricinus; [2]): 20%
pest or weed control at 0.0016 % (Ixodes ricinus; Ixodes ricinus, 0.0016% in ethanol (Table 12), read-out: percentage of ticks affected on the Warm Plate): 20%
pest or weed control at 0.0053 % (Ixodes ricinus; Ixodes ricinus, 0.0053% in ethanol (Table 12), read-out: percentage of ticks affected on the Warm Plate): 7%
pest or weed control at 0.008 % (Ixodes ricinus; Ixodes ricinus, 0.008% in ethanol (Table 12), read-out: percentage of ticks affected on the Warm Plate): 8%
pest or weed control at 0.0119 % (Ixodes ricinus; Ixodes ricinus, 0.0119% in ethanol (Table 12), read-out: percentage of ticks affected on the Warm Plate): 23%
pest or weed control at 0.0178 % (Ixodes ricinus; Ixodes ricinus, 0.0178% in ethanol (Table 12), read-out: percentage of ticks affected on the Warm Plate): 0%
pest or weed control at 0.0267 % (Ixodes ricinus; Ixodes ricinus, 0.0267% in ethanol (Table 12), read-out: percentage of ticks affected on the Warm Plate): 7%
pest or weed control at 0.04 % (Ixodes ricinus; [3]): 57%
pest or weed control at 0.04 % (Ixodes ricinus; Ixodes ricinus, 0.04% in ethanol (Table 12), read-out: percentage of ticks affected on the Warm Plate): 57%
pest or weed control at 0.0598 % (Ixodes ricinus; Ixodes ricinus, 0.0598% in ethanol (Table 12), read-out: percentage of ticks affected on the Warm Plate): 13%
pest or weed control at 0.089 % (Ixodes ricinus; Ixodes ricinus, 0.089% in ethanol (Table 12), read-out: percentage of ticks affected on the Warm Plate): 41%
pest or weed control at 0.2 % (Ixodes ricinus; Ixodes ricinus, 0.2% in ethanol (Table 12), read-out: percentage of ticks affected on the Warm Plate): 85%
pest or weed control at 0.447 % (Ixodes ricinus; Ixodes ricinus, 0.447% in ethanol (Table 12), read-out: percentage of ticks affected on the Warm Plate): 92%
pest or weed control at 1 % (Ixodes ricinus; [4]): 96%
pest or weed control at 1 % (Ixodes ricinus; Ixodes ricinus, 1% in ethanol (Table 12), read-out: percentage of ticks affected on the Warm Plate): 96%

CC(=O)C1(C)Cc2ccc(C)c(C)c2C1 (racemic) [(+−)-1-(2,4,5-trimethyl-2,3-dihydro-1H-inden-2-yl)ethanone]
number of mosquitoes landed on the Warm Body (Aedes aegypti; 0.0016% in ethanol (Table 6)): 31
number of mosquitoes landed on the Warm Body (Aedes aegypti; 0.04% in ethanol (Table 6)): 5
number of mosquitoes landed on the Warm Body (Aedes aegypti; 1% in ethanol (Table 6)): 18
pest or weed control at 0.04 % (Ixodes ricinus; [5]): 0%
pest or weed control at 0.2 % (Ixodes ricinus; [6]): 38%
pest or weed control at 1 % (Ixodes ricinus; [7]): 92%

Cc1ccc2c(c1)CCC(C)(CO)C2 (racemic) [(+−)-(2,6-dimethyl-1,2,3,4-tetrahydro-2-naphthalenyl)methanol]
number of mosquitoes landed on the Warm Body (Aedes aegypti; 0.0016% in ethanol (Table 6)): 57
number of mosquitoes landed on the Warm Body (Aedes aegypti; 0.04% in ethanol (Table 6)): 65
number of mosquitoes landed on the Warm Body (Aedes aegypti; 1% in ethanol (Table 6)): 3
pest or weed control at 0.04 % (Ixodes ricinus; [5]): 8%
pest or weed control at 0.2 % (Ixodes ricinus; [6]): 71%
pest or weed control at 1 % (Ixodes ricinus; [7]): 100%
